From patent US20030158250A1, “Agents correcting gene expression regulatory error” (priority 2000, published 2003)

Columns and labels:
Type in all cases: cell-based
interleukin-6 (IL-6) = assay: RT-PCR expression level of IL-6 gene in monocytes; details: human monocytes, 30 PCR cycles
Description: (§1) Four-hundred milliliters of blood was collected from a human normal individual donor. The collected blood was diluted 2-folds with PBS(−), overlaid on Ficoll-paque (manufactured by Pharmacia), and centrifuged at 500×g for 20 minutes. The peripheral blood mononuclear cells (PBMCs) in the intermediate layer was collected with a pipette, and washed with RPMI 1640 medium (manufactured by Bio Whittaker). The collected PBMCs was suspended in a storage solution of 90% FCS (manufactured by JRH Biosciences)/10% dimethyl sulfoxide, and stored in liquid nitrogen. During the experiment, these stored PBMCs were rapidly melted in water bath at 37° C., and washed with RPMI 1640 medium containing 10 μg/ml Dnase (manufactured by Calbiochem). Thereafter, the number of living cells was calculated by trypan blue staining method, and subjected to each experiment.
(§2) PBMCs were suspended in RPMI 1640 medium containing 5% human serum of blood type-AB, 0.1 mM nonessential amino acid, 1 mM sodium pyruvate, 2 mM L-glutamine (hereinabove manufactured by Bio Whittaker), 10 mM HEPES (manufactured by nakalai tesque), and 1% streptomycin-penicillin (manufactured by Gibco BRL) (hereinafter simply referred to as “5HRPMI medium”) so as to have a concentration of 4×10^6 cells/ml. Thereafter, the suspension was spread on a 6-well cell culture plate (manufactured by Falcon) in a volume of 3 ml/well, and the cells were incubated in a wet-type incubator at 37° C. and 5% CO2 for 1.5 hours. After 1.5 hours, the non-adherent cells were removed by suction, and each well was washed with RPMI 1640 medium, and 2 ml of the 5HRPMI medium was added to the wells, to give monocytes.
(§3) To the monocytes obtained above was added in each well 8 μl of an aqueous DGE solution, or 8 μl of water as a control, and the cells were incubated in a wet-type incubator at 37° C. and 5% CO2 for 5 hours. Thereafter, with addition of 2 μl of a 1 μg/ml aqueous LPS solution or 2 μl of a 25 μM TPA dimethyl sulfoxide solution to each well, or with addition of neither of these substances thereto, the cells were cultured for additional 4 hours. Thereafter, RNA was prepared from each cell in accordance with the description of the kit using RNeasy Mini Kit (manufactured by QIAGEN, 74104). The group with addition of water alone or the aqueous DGE solution alone to the cells was set as a negative control, and the group with addition of water and the aqueous LPS solution or the aqueous TPA solution to the cells was set as a positive control.
(§4) A liquid mixture having a total volume of 60 μl of 0.5 μg of RNA prepared above, 10 mM Tris-HCl (pH 8.3), 50 mM KCl, 5 mM MgCl2, 1 mM dNTP mixtures, 150 pmol of Random 6 mers, 60 U Ribonuclease Inhibitor (manufactured by Takara Shuzo Co., Ltd., 2310A), and 15 U Reverse Transcriptase XL (AMV) (manufactured by Takara Shuzo Co., Ltd., 2620A) were incubated at 30° C. for 10 minutes and thereafter at 42° C. for 1 hour using a thermal cycler (GeneAmp PCR System 9600, manufactured by Applied Biosystems), and the mixture was heated at 99° C. for 5 minutes to deactivate the enzyme, to give cDNA.
(§5) Oligonucleotide primers for reaction of PCR were designed based on mRNA nucleotide sequence of each gene listed in the following tables, and synthesized in the same manner as above. In Tables 4 and 5, each gene evaluated in this Example, GenBank Accession NO, the name of oligonucleotide primers and SEQ ID NOs of the primers in Sequence Listing were listed. […]

[1] = system: liver and activation-regulated chemokine (LARC); assay: RT-PCR expression level of LARC gene in monocytes; details: human monocytes, 30 PCR cycles
Description: as §1, §2, §3, §4, §5

[2] = system: macrophage-derived chemokine (MDC); assay: RT-PCR expression level of MDC gene in monocytes; details: human monocytes, 30 PCR cycles
Description: as §1, §2, §3, §4, §5

[3] = system: macrophage inflammatory protein-2-α (MIP2α); assay: RT-PCR expression level of MIP2α gene in monocytes; details: human monocytes, 35 PCR cycles
Description: as §1, §2, §3, §4, §5

[4] = system: growth regulated protein-1 (Gro1); assay: RT-PCR expression level of Gro1 gene in monocytes; details: human monocytes, 30 PCR cycles
Description: as §1, §2, §3, §4, §5

[5] = system: migration inhibitory factor-related protein-8 (MRP8); assay: RT-PCR expression level of MRP8 gene in monocytes; details: human monocytes, 30 PCR cycles
Description: as §1, §2, §3, §4, §5

[6] = system: interferon-induced 17-kDa/15-kDa protein (IFNp15/p17); assay: RT-PCR expression level of IFNp15/p17 gene in monocytes; details: human monocytes, 30 PCR cycles
Description: as §1, §2, §3, §4, §5

[7] = system: interferon-inducible protein p78 (IFNp78); assay: RT-PCR expression level of IFNp78 gene in monocytes; details: human monocytes, 30 PCR cycles
Description: as §1, §2, §3, §4, §5

[8] = system: SCO (cytochrome oxidase deficient, yeast) homolog-2 (SCO2); assay: RT-PCR expression level of SCO2 gene in monocytes; details: human monocytes, 30 PCR cycles
Description: as §1, §2, §3, §4, §5

transketolase (TK) = assay: RT-PCR expression level of TK gene in monocytes; details: human monocytes, 30 PCR cycles
Description: as §1, §2, §3, §4, §5

[9] = system: adenosine A2a receptor (ADORA2A); assay: RT-PCR expression level of ADORA2A gene in monocytes; details: human monocytes, 35 PCR cycles
Description: as §1, §2, §3, §4, §5

CD37 antigen (CD37) = assay: RT-PCR expression level of CD37 gene in monocytes; details: human monocytes, 35 PCR cycles
Description: as §1, §2, §3, §4, §5

[10] = system: regulator of G-protein signaling-2 (RGS2); assay: RT-PCR expression level of RGS2 gene in monocytes; details: human monocytes, 35 PCR cycles
Description: as §1, §2, §3, §4, §5

[11] = system: Nef-associated factor-1 (NAF1); assay: RT-PCR expression level of NAF1 gene in monocytes; details: human monocytes, 30 PCR cycles
Description: as §1, §2, §3, §4, §5

[12] = substance added alone, Con. (water) −
[13] = substance added alone, Con. (water) +/−
[14] = substance added alone, Con. (water) +
[15] = L + D: DGE and LPS, LPS alone +++
[16] = T + D: DGE and TPA, TPA alone +
[17] = T + D: DGE and TPA, TPA alone ++
[18] = L + D: DGE and LPS, LPS alone +
[19] = T + D: DGE and TPA, TPA alone −
[20] = L + D: DGE and LPS, LPS alone +/−
[21] = T + D: DGE and TPA, TPA alone +/−
[22] = L + D: DGE and LPS, LPS alone ++
[23] = L + D: DGE and LPS, LPS alone −

## lipopolysaccharide [LPS, reference compound]
interleukin-6 (IL-6); [12]
  expression level of IL-6 gene: +++
[1]; [13]
  expression level of LARC gene: +++
[2]; [12]
  expression level of MDC gene: +
[3]; [13]
  expression level of MIP2α gene: +
[4]; [14]
  expression level of Gro1 gene: +++
[5]; [14]
  expression level of MRP8 gene: +/−
[6]; [14]
  expression level of IFNp15/p17 gene: +++
[7]; [14]
  expression level of IFNp78 gene: ++
[8]; [14]
  expression level of SCO2 gene: −
Transketolase (TK); [13]
  expression level of TK gene: +/−
[9]; [14]
  expression level of ADORA2A gene: +++
CD37 antigen (CD37); [13]
  expression level of CD37 gene: −
[10]; [13]
  expression level of RGS2 gene: −
[11]; [14]
  expression level of NAF1 gene: ++

## 12-o-tetradecanoylphorbol 13-acetate [TPA, reference compound]
interleukin-6 (IL-6); [12]
  expression level of IL-6 gene: +
[1]; [13]
  expression level of LARC gene: ++
[2]; [12]
  expression level of MDC gene: −
[3]; [13]
  expression level of MIP2α gene: +
[4]; [14]
  expression level of Gro1 gene: ++
[5]; [14]
  expression level of MRP8 gene: +/−
[6]; [14]
  expression level of IFNp15/p17 gene: +
[7]; [14]
  expression level of IFNp78 gene: +
[8]; [14]
  expression level of SCO2 gene: +
Transketolase (TK); [13]
  expression level of TK gene: −
[9]; [14]
  expression level of ADORA2A gene: +
CD37 antigen (CD37); [13]
  expression level of CD37 gene: +/−
[10]; [13]
  expression level of RGS2 gene: +/−
[11]; [14]
  expression level of NAF1 gene: +/−

## O=C1C=CC(CO)OC1O [DGE, L-glycero-1,5-epoxy-1αβ,6-dihydroxy-cis-hex-3-en-2-one]
interleukin-6 (IL-6); [15]
  expression level of IL-6 gene: −
interleukin-6 (IL-6); [16]
  expression level of IL-6 gene: −
interleukin-6 (IL-6); [12]
  expression level of IL-6 gene: −
[1]; [15]
  expression level of LARC gene: +
[1]; [17]
  expression level of LARC gene: +
[1]; [13]
  expression level of LARC gene: +/−
[2]; [18]
  expression level of MDC gene: −
[2]; [19]
  expression level of MDC gene: −
[2]; [12]
  expression level of MDC gene: −
[3]; [18]
  expression level of MIP2α gene: +/−
[3]; [16]
  expression level of MIP2α gene: +/−
[3]; [13]
  expression level of MIP2α gene: +/−
[4]; [15]
  expression level of Gro1 gene: +
[4]; [17]
  expression level of Gro1 gene: +
[4]; [14]
  expression level of Gro1 gene: +
[5]; [20]
  expression level of MRP8 gene: +
[5]; [21]
  expression level of MRP8 gene: +
[5]; [14]
  expression level of MRP8 gene: +
[6]; [15]
  expression level of IFNp15/p17 gene: +/−
[6]; [16]
  expression level of IFNp15/p17 gene: +/−
[6]; [14]
  expression level of IFNp15/p17 gene: +
[7]; [22]
  expression level of IFNp78 gene: −
[7]; [16]
  expression level of IFNp78 gene: +/−
[7]; [14]
  expression level of IFNp78 gene: +/−
[8]; [23]
  expression level of SCO2 gene: +
[8]; [16]
  expression level of SCO2 gene: +
[8]; [14]
  expression level of SCO2 gene: +
Transketolase (TK); [20]
  expression level of TK gene: +
Transketolase (TK); [19]
  expression level of TK gene: +
Transketolase (TK); [13]
  expression level of TK gene: +/−
[9]; [15]
  expression level of ADORA2A gene: −
[9]; [16]
  expression level of ADORA2A gene: −
[9]; [14]
  expression level of ADORA2A gene: +/−
CD37 antigen (CD37); [23]
  expression level of CD37 gene: +
CD37 antigen (CD37); [21]
  expression level of CD37 gene: +/−
CD37 antigen (CD37); [13]
  expression level of CD37 gene: +/−
[10]; [23]
  expression level of RGS2 gene: +/−
[10]; [21]
  expression level of RGS2 gene: +/−
[10]; [13]
  expression level of RGS2 gene: +/−
[11]; [22]
  expression level of NAF1 gene: +/−
[11]; [21]
  expression level of NAF1 gene: −
[11]; [14]
  expression level of NAF1 gene: −
